# Test results published in patent US20200256853A1, “Models of Reconstructed Sensitive Skin” (Laboratoires Expanscience, priority 2017, published 2020).
# How the values were obtained:
# Assay type in all cases: cell-based
# [1] = test system: reconstructed human epidermises; assay: Gene expression in reconstructed epidermises (qRT-PCR); details: Lactic acid 0.6%; control = 100
# Method: Reconstructed human epidermises were obtained from the keratinocytes of a donor using the method derived from Poumay et al. (Arch Dermatol Res 2004; 296:203-11). After 2 days of immersion culture, the reconstructed human epidermises were cultured at the air/liquid interface for 10 days. […] Gene expression of inflammatory markers and of markers of innate immunity and defense was evaluated by real-time quantitative PCR (qRT-PCR) on messenger RNAs extracted from epidermis (n=2). Gene expression of the innate immunity and defense markers, beta-defensin 2 hBD2, or Toll-like receptor 2, was also evaluated in the same way. The gene expression analysis was performed in duplicate using a PCR array. The quantitative analysis of gene expression was based on the analysis of threshold cycles; relative expression (RE) was expressed in arbitrary units according to the following formula: RE=(½ number of cycles)×10^6
# [2] = test system: reconstructed human epidermises; assay: Determination of polyunsaturated fatty acids (PUFAs) in reconstructed epidermises (GC/MS), Example 2; details: Lactic acid 0.6%
# Method: (§1) Reconstructed human epidermises were obtained from the keratinocytes of a donor using the method derived from Poumay et al. (Arch Dermatol Res 2004; 296:203-11). After 2 days of immersion culture, the reconstructed human epidermises were cultured at the air/liquid interface for 10 days.
# (§2) Screening of polyunsaturated fatty acids (PUFAs) expressed by the epidermis was carried out by GC/MS analysis of samples obtained after grinding the epidermises (n=2).
# (§3) The amounts were normalized by C16:0 (palmitic acid), which is representative of the overall lipid content of the epidermis.
# [3] = test system: reconstructed Sensitive Skin model (reconstructed human epidermises treated with 0.6% lactic acid); assay: Determinations of released inflammatory mediators (ELISA) in reconstructed Sensitive Skin model, Example 3
# Method: (§4) Reconstructed human epidermises were obtained from the keratinocytes of a […] donor using the method derived from Poumay et al. (Arch Dermatol Res 2004; 296:203-11). After 2 days of immersion culture, the reconstructed human epidermises were cultured at the air/liquid interface for 10 days.
# (§5) Epidermises at differentiation day 10 was treated or not (control) systemically with the test compounds and incubated for 24 hours.
# (§6) The amount of inflammatory mediators IL-1alpha (IL1α), IL-8 and PGE2 present in skin culture supernatants was evaluated using ELISA kits (R&D Systems). • Evaluations of intracellular inflammatory markers IL-1α, IL8 and IL1-RA (n=2)
# [4] = test system: reconstructed human epidermises; assay: Intracellular determinations of inflammatory markers (ELISA), Example 2; details: Lactic acid 0.6%
# Method: as §1
# (§7) Intracellular amounts of IL-1α, IL8 and IL1-RA were determined by ELISA (R&D Systems) in ground epidermis (n=2).
# [5] = test system: reconstructed human epidermises; assay: Immunolabeling of involucrin in reconstructed epidermis; details: Lactic acid 0.6%; fluorescence intensity vs. control
# Method: Reconstructed human epidermises were obtained from the keratinocytes of a donor using the method derived from Poumay et al. (Arch Dermatol Res 2004; 296:203-11). After 2 days of immersion culture, the reconstructed human epidermises were cultured at the air/liquid interface for 10 days. […] On the other hand, involucrin was stained by immunofluorescence (Alexa-488; green dye), the nuclei were stained by propidium iodide (red dye). The involucrin staining was quantified by measuring the fluorescence intensity reported on the surface of the living layers of the epidermis.
# [6] = test system: reconstructed Sensitive Skin model (reconstructed human epidermises treated with 0.6% lactic acid); assay: Determination of PUFAs (GC/MS) in reconstructed Sensitive Skin model, Example 3
# Method: as §2, §3, §4, §5
# (§8) Same protocol as described in Example 2. • Determination of Poly-Unsaturated Fatty Acids (PUFAs) (n=2)
# Same protocol as described in Example 2.
# [7] = test system: reconstructed human epidermises; assay: Viability of reconstructed epidermises (MTT); details: Lactic acid 0.6% topical, 48 h; control 100%; donor
# Method: as §1
# The viability of the epidermises was assessed by an MTT metabolism test (n=2). The optical density (OD) at 540 nm is proportional to the amount of living cells and their metabolic activity.
# [8] = test system: reconstructed Sensitive Skin model (reconstructed human epidermises treated with 0.6% lactic acid); assay: Intracellular measurements of inflammatory mediators (ELISA) in reconstructed Sensitive Skin model, Example 3
# Method: as §7, §4, §5, §6, §8
# [9] = test system: reconstructed human epidermises; assay: Determinations of released inflammatory markers, Example 2; details: Lactic acid 0.6%
# Method: Reconstructed human epidermises were obtained from the keratinocytes of a donor using the method derived from Poumay et al. (Arch Dermatol Res 2004; 296:203-11). After 2 days of immersion culture, the reconstructed human epidermises were cultured at the air/liquid interface for 10 days. […] The amount of inflammatory markers present in culture supernatants was assessed (n=6) using CBA kits (BD Biosciences) for IL-1 alpha (IL1α) and IL-8; and ELISA kits for VEGF (R&D Systems) and PGE2 (Enzo).
# [10] = Lactic acid 0.6%, change vs. control
# [11] = OX100 10 μM + lactic acid 0.6%, change vs. lactic acid
# [12] = OX100 100 μM + lactic acid 0.6%
# [13] = OX100 100 μM + lactic acid 0.6%, change vs. lactic acid
smiles,measurement,setting,value
"CC(O)C(=O)O (stereo not shown) [Lactic acid, lactic acid]",ADCYAP1 gene expression,[1],117
same,DEFB4A gene expression,[1],6
same,IL1A gene expression,[1],240
same,IL1B gene expression,[1],195
same,IL1RN gene expression,[1],144
same,IL8 gene expression,[1],649
same,PLA2G2F2F gene expression,[1],129
same,PTGS2 gene expression,[1],182
same,THBS1 gene expression,[1],181
same,TLR2 gene expression,[1],54
same,TNF gene expression,[1],105
same,VEGF-A gene expression,[1],138
same,C18:1 Change vs. control,[2],+20%
same,C18:1 amount normalized to C16:0,[2],0.226
same,C18:2 LA Change vs. control,[2],+19%
same,C18:2 LA amount normalized to C16:0,[2],0.216
same,C20:4 AA Change vs. control,[2],+42%
same,C20:4 AA amount normalized to C16:0,[2],0.050
same,Released IL1-alpha Mean ± Standard deviation,"[3]; Lactic acid 0.6% topical, 48 h",68 ± 34 pg/mL
same,Released IL8 Mean ± Standard deviation,"[3]; Lactic acid 0.6% topical, 48 h",209 ± 40 pg/mL
same,Released PGE2 Mean ± Standard deviation,"[3]; Lactic acid 0.6% topical, 48 h",197 ± 79 pg/mL
same,Released IL1-alpha Change,[3]; [10],+511%
same,Released IL8 Change,[3]; [10],+169%
same,Released PGE2 Change,[3]; [10],+584%
same,Intracellular IL1-RA Change vs. control,[4],+1242%
same,Intracellular IL1-alpha Change vs. control,[4],+806%
same,Intracellular IL8 Change vs. control,[4],+390%
same,Intracellular IL1-RA,[4]; 48 h,31243 pg/mg protein
same,Intracellular IL1-alpha,[4]; 48 h,794 pg/mg protein
same,Intracellular IL8,[4]; 48 h,52.1 pg/mg protein
same,Decrease in the expression level of involucrin,[5],−22%
same,"C18:1 Mean ± SD, amount normalized to C16:0","[6]; Lactic acid 0.6% topical, 48 h",0.3880
same,"C18:2 LA Mean ± SD, amount normalized to C16:0","[6]; Lactic acid 0.6% topical, 48 h",0.2130
same,"C20:4 AA Mean ± SD, amount normalized to C16:0","[6]; Lactic acid 0.6% topical, 48 h",0.0575
same,C18:1 Change,[6]; [10],+110%
same,C18:2 LA Change,[6]; [10],+134%
same,C20:4 AA Change,[6]; [10],+113%
same,Viability,[7],66%
same,Intracellular IL1-alpha Mean ± SD,"[8]; Lactic acid 0.6% topical, 48 h",1044 ± 123.0 pg/mg protein
same,Intracellular IL1RA Mean ± SD,"[8]; Lactic acid 0.6% topical, 48 h",25750 ± 1974 pg/mg protein
same,Intracellular IL8 Mean ± SD,"[8]; Lactic acid 0.6% topical, 48 h",79.20 ± 7.715 pg/mg protein
same,Intracellular IL1-alpha Change,[8]; [10],+277%
same,Intracellular IL1RA Change,[8]; [10],+394%
same,Intracellular IL8 Change,[8]; [10],+113%
same,Released IL1-alpha Change vs. control,[9],+221%
same,Released IL8 Change vs. control,[9],+84%
same,Released PGE2 Change vs. control,[9],+207%
same,Released VEGF Change vs. control,[9],+156%
same,Released IL1-alpha,"[9]; 48 h, culture supernatant",23 ± 7 pg/mL
same,Released IL8,"[9]; 48 h, culture supernatant",120 ± 18 pg/mL
same,Released PGE2,"[9]; 48 h, culture supernatant",149 ± 36 pg/mL
same,Released VEGF,"[9]; 48 h, culture supernatant",1109 ± 45 pg/mL
"CCCCCCCCCCCC1=NC(C)(C)CO1 [OX100, Cycloceramide]",Released IL1-alpha Mean ± Standard deviation,[3]; OX100 10 μM + lactic acid 0.6%,27 ± 13 pg/mL
same,Released IL8 Mean ± Standard deviation,[3]; OX100 10 μM + lactic acid 0.6%,175 ± 30 pg/mL
same,Released PGE2 Mean ± Standard deviation,[3]; OX100 10 μM + lactic acid 0.6%,98 ± 28 pg/mL
same,Released IL1-alpha Change,[3]; [11],−61%
same,Released IL8 Change,[3]; [11],−16%
same,Released PGE2 Change,[3]; [11],−50%
same,Released IL1-alpha Mean ± Standard deviation,[3]; [12],31 ± 19 pg/mL
same,Released IL8 Mean ± Standard deviation,[3]; [12],146 ± 24 pg/mL
same,Released PGE2 Mean ± Standard deviation,[3]; [12],100 ± 48 pg/mL
same,Released IL1-alpha Change,[3]; [13],−54%
same,Released IL8 Change,[3]; [13],−30%
same,Released PGE2 Change,[3]; [13],−49%
same,Release of IL1α induced by lactic acid (in words),[3]; concentration not given,significantly inhibited
same,Release of IL8 induced by lactic acid (in words),[3]; concentration not given,significantly inhibited
same,Release of PGE2 induced by lactic acid (in words),[3]; concentration not given,significantly inhibited
same,"C18:1 Mean ± SD, amount normalized to C16:0",[6]; OX100 10 μM + lactic acid 0.6%,0.2795
same,"C18:2 LA Mean ± SD, amount normalized to C16:0",[6]; OX100 10 μM + lactic acid 0.6%,0.1515
same,"C20:4 AA Mean ± SD, amount normalized to C16:0",[6]; OX100 10 μM + lactic acid 0.6%,0.0380
same,C18:1 Change,[6]; [11],−28%
same,C18:2 LA Change,[6]; [11],−29%
same,C20:4 AA Change,[6]; [11],−34%
same,"C18:1 Mean ± SD, amount normalized to C16:0",[6]; [12],0.2065
same,"C18:2 LA Mean ± SD, amount normalized to C16:0",[6]; [12],0.0970
same,"C20:4 AA Mean ± SD, amount normalized to C16:0",[6]; [12],0.0265
same,C18:1 Change,[6]; [13],−47%
same,C18:2 LA Change,[6]; [13],−54%
same,C20:4 AA Change,[6]; [13],−54%
same,IL1RA/IL1-alpha ratio Mean ± SD,[8]; OX100 10 μM + lactic acid 0.6%,25.6 ± 0.276
same,Intracellular IL1-alpha Mean ± SD,[8]; OX100 10 μM + lactic acid 0.6%,919.5 ± 53.03 pg/mg protein
same,Intracellular IL1RA Mean ± SD,[8]; OX100 10 μM + lactic acid 0.6%,23566 ± 1624 pg/mg protein
same,Intracellular IL8 Mean ± SD,[8]; OX100 10 μM + lactic acid 0.6%,76.24 ± 8.309 pg/mg protein
same,IL1RA/IL1-alpha ratio Change,[8]; [11],+4%
same,Intracellular IL1-alpha Change,[8]; [11],−12%
same,Intracellular IL1RA Change,[8]; [11],−8%
same,Intracellular IL8 Change,[8]; [11],−4%
same,IL1RA/IL1-alpha ratio Mean ± SD,[8]; [12],20.5 ± 0.481
same,Intracellular IL1-alpha Mean ± SD,[8]; [12],713.5 ± 113.8 pg/mg protein
same,Intracellular IL1RA Mean ± SD,[8]; [12],14581 ± 1989 pg/mg protein
same,Intracellular IL8 Mean ± SD,[8]; [12],56.95 ± 7.460 pg/mg protein
same,IL1RA/IL1-alpha ratio Change,[8]; [13],−17%
same,Intracellular IL1-alpha Change,[8]; [13],−32%
same,Intracellular IL1RA Change,[8]; [13],−43%
same,Intracellular IL8 Change,[8]; [13],−28%
same,IL1RA/IL1α ratio (in words),[8]; concentration not given,maintained the balance of the IL1RA/IL1α ratio
same,Increase in intracellular IL1RA level induced by lactic acid treatment (in words),[8]; concentration not given,significantly inhibited
